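Interpolation was linear, between the two tested concentrations surrounding the appropriate level; five concentrations were tested over 48 hours in 96-well plates. GI50 = concentration required for 50% inhibition of growth.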 The source made the active and inactive calls. Rule as the data show it: active = GI50 up to about 1.1 µM and inactive = higher.
Columns and labels:
Test in all cases: DTP human tumour cell line panel, 48 h
SK-OV-3 = tested on: SK-OV-3
OVCAR-4 = tested on: OVCAR-4
MDA-MB-435 = tested on: MDA-MB-435
IGROV-1 = tested on: IGROV-1
T47D = tested on: T47D
SNB-19 = tested on: SNB-19
RXF 393 = tested on: RXF 393
SK-MEL-28 = tested on: SK-MEL-28
SF-539 = tested on: SF-539
HOP-92 = tested on: HOP-92
RPMI-8226 = tested on: RPMI-8226
SR = tested on: SR
786-0 = tested on: 786-0
Hs-578T = tested on: Hs-578T
KM12 = tested on: KM12
ACHN = tested on: ACHN
OVCAR-8 = tested on: OVCAR-8
CAKI-1 = tested on: CAKI-1
DU-145 = tested on: DU-145
OVCAR-5 = tested on: OVCAR-5

SMILES: CC1=NN(c2nc(N)nc(C(C)Cl)n2)C(C)(C)C1 (stereo not drawn)
- GI50 (SK-OV-3): > 100 µM (inactive)
- GI50 (OVCAR-4): > 100 µM (inactive)
- GI50 (MDA-MB-435): > 100 µM (inactive)
- GI50 (IGROV-1): > 100 µM (inactive)
- GI50 (T47D): > 100 µM (inactive)
- GI50 (SNB-19): > 100 µM (inactive)
- GI50 (RXF 393): > 100 µM (inactive)
- GI50 (SK-MEL-28): > 100 µM (inactive)
- GI50 (SF-539): > 100 µM (inactive)
- GI50 (HOP-92): > 100 µM (inactive)
- GI50 (RPMI-8226): > 100 µM (inactive)
- GI50 (SR): > 100 µM (inactive)
- GI50 (786-0): > 100 µM (inactive)
- GI50 (Hs-578T): > 100 µM (inactive)
- GI50 (KM12): > 100 µM (inactive)
- GI50 (ACHN): > 100 µM (inactive)
- GI50 (OVCAR-8): > 100 µM (inactive)
- GI50 (CAKI-1): > 100 µM (inactive)
- GI50 (DU-145): > 100 µM (inactive)

SMILES: Cc1cc2c(cc1-c1cc3c(cc1C)C(C(C)C)=C(O)C(=O)/C3=C\Nc1cccc3c(N)cccc13)/C(=C/Nc1cccc3c(N)cccc13)C(=O)C(O)=C2C(C)C
- GI50 (SK-OV-3): > 100 µM (inactive)
- GI50 (OVCAR-4): > 100 µM (inactive)
- GI50 (MDA-MB-435): > 100 µM (inactive)
- GI50 (IGROV-1): > 100 µM (inactive)
- GI50 (T47D): > 100 µM (inactive)
- GI50 (SNB-19): > 100 µM (inactive)
- GI50 (RXF 393): > 100 µM (inactive)
- GI50 (SK-MEL-28): > 100 µM (inactive)
- GI50 (OVCAR-5): > 100 µM (inactive)
- GI50 (HOP-92): > 100 µM (inactive)
- GI50 (RPMI-8226): > 100 µM (inactive)
- GI50 (SR): 65.8 µM (inactive)
- GI50 (786-0): > 100 µM (inactive)
- GI50 (Hs-578T): > 100 µM (inactive)
- GI50 (KM12): > 100 µM (inactive)
- GI50 (ACHN): > 100 µM (inactive)
- GI50 (OVCAR-8): > 100 µM (inactive)
- GI50 (CAKI-1): > 100 µM (inactive)
- GI50 (DU-145): > 100 µM (inactive)

SMILES: O=S(=O)(/N=S(/Nc1ccccc1)C(F)(F)Cl)c1ccccc1 (stereo not drawn)
- GI50 (SK-OV-3): > 100 µM (inactive)
- GI50 (OVCAR-4): > 100 µM (inactive)
- GI50 (MDA-MB-435): > 100 µM (inactive)
- GI50 (IGROV-1): > 100 µM (inactive)
- GI50 (T47D): > 100 µM (inactive)
- GI50 (SNB-19): > 100 µM (inactive)
- GI50 (RXF 393): > 100 µM (inactive)
- GI50 (SK-MEL-28): > 100 µM (inactive)
- GI50 (SF-539): > 100 µM (inactive)
- GI50 (OVCAR-5): > 100 µM (inactive)
- GI50 (HOP-92): > 100 µM (inactive)
- GI50 (RPMI-8226): > 100 µM (inactive)
- GI50 (SR): > 100 µM (inactive)
- GI50 (786-0): > 100 µM (inactive)
- GI50 (Hs-578T): > 100 µM (inactive)
- GI50 (KM12): > 100 µM (inactive)
- GI50 (ACHN): > 100 µM (inactive)
- GI50 (OVCAR-8): > 100 µM (inactive)
- GI50 (DU-145): > 100 µM (inactive)

SMILES: CC(C)CCCC(C)[C@H]1CC[C@H]2n3c(nnc3-c3ccccc3)CCC[C@]12C (stereo partly drawn)
- GI50 (SK-OV-3): 13.4 µM (inactive)
- GI50 (OVCAR-4): 12.5 µM (inactive)
- GI50 (MDA-MB-435): 10.7 µM (inactive)
- GI50 (IGROV-1): 5.74 µM (inactive)
- GI50 (T47D): 11.7 µM (inactive)
- GI50 (SNB-19): 11.8 µM (inactive)
- GI50 (RXF 393): 11.5 µM (inactive)
- GI50 (SK-MEL-28): 16.9 µM (inactive)
- GI50 (SF-539): 11.9 µM (inactive)
- GI50 (HOP-92): 15.1 µM (inactive)
- GI50 (RPMI-8226): 4.13 µM (inactive)
- GI50 (SR): 4.06 µM (inactive)
- GI50 (786-0): 14.6 µM (inactive)
- GI50 (Hs-578T): 18.4 µM (inactive)
- GI50 (KM12): 28.8 µM (inactive)
- GI50 (OVCAR-8): 15.9 µM (inactive)
- GI50 (CAKI-1): 14 µM (inactive)
- GI50 (DU-145): 16.2 µM (inactive)

SMILES: CCC(C)SC1SCC2C(=O)N(C)C3(CC3C)C(=O)OCC(NC(=O)c3nc4ccccc4cc3O)C(=O)NC(C)C(=O)N(C)C1C(=O)N(C)C1(CC1C)C(=O)OCC(NC(=O)c1nc3ccccc3cc1O)C(=O)NC(C)C(=O)N2C (stereo not drawn)
- GI50 (SK-OV-3): 0.000144 µM (active)
- GI50 (MDA-MB-435): 4.97e-05 µM (active)
- GI50 (IGROV-1): 0.000137 µM (active)
- GI50 (T47D): 0.000219 µM (active)
- GI50 (SNB-19): 4.79e-05 µM (active)
- GI50 (RXF 393): 4.76e-05 µM (active)
- GI50 (SF-539): 4.79e-05 µM (active)
- GI50 (OVCAR-5): 0.00018 µM (active)
- GI50 (HOP-92): 5.87e-05 µM (active)
- GI50 (RPMI-8226): 4.15e-05 µM (active)
- GI50 (SR): 2.79e-05 µM (active)
- GI50 (786-0): 3.4e-05 µM (active)
- GI50 (Hs-578T): 5.24e-05 µM (active)
- GI50 (OVCAR-8): 9.1e-05 µM (active)
- GI50 (CAKI-1): 0.01 µM (active)
- GI50 (DU-145): 0.000188 µM (active)

SMILES: CCOC(=O)C1(N)CC1
- GI50 (OVCAR-4): > 100 µM (inactive)
- GI50 (MDA-MB-435): > 100 µM (inactive)
- GI50 (IGROV-1): > 100 µM (inactive)
- GI50 (T47D): 56.8 µM (inactive)
- GI50 (SNB-19): > 100 µM (inactive)
- GI50 (RXF 393): > 100 µM (inactive)
- GI50 (SK-MEL-28): > 100 µM (inactive)
- GI50 (SF-539): > 100 µM (inactive)
- GI50 (OVCAR-5): > 100 µM (inactive)
- GI50 (HOP-92): > 100 µM (inactive)
- GI50 (RPMI-8226): > 100 µM (inactive)
- GI50 (SR): > 100 µM (inactive)
- GI50 (786-0): > 100 µM (inactive)
- GI50 (Hs-578T): > 100 µM (inactive)
- GI50 (KM12): > 100 µM (inactive)
- GI50 (ACHN): > 100 µM (inactive)
- GI50 (OVCAR-8): > 100 µM (inactive)
- GI50 (CAKI-1): > 100 µM (inactive)
- GI50 (DU-145): > 100 µM (inactive)

SMILES: O=C1CCN(CCC(F)(F)C(F)(F)C(F)(F)C(F)(F)C(F)(F)C(F)(F)F)C(=S)N1CCC(F)(F)C(F)(F)C(F)(F)C(F)(F)C(F)(F)C(F)(F)F
- GI50 (SK-OV-3): > 100 µM (inactive)
- GI50 (OVCAR-4): > 100 µM (inactive)
- GI50 (MDA-MB-435): > 100 µM (inactive)
- GI50 (IGROV-1): > 100 µM (inactive)
- GI50 (T47D): > 100 µM (inactive)
- GI50 (SNB-19): > 100 µM (inactive)
- GI50 (RXF 393): > 100 µM (inactive)
- GI50 (SK-MEL-28): > 100 µM (inactive)
- GI50 (SF-539): > 100 µM (inactive)
- GI50 (OVCAR-5): > 100 µM (inactive)
- GI50 (HOP-92): > 100 µM (inactive)
- GI50 (SR): > 100 µM (inactive)
- GI50 (786-0): > 100 µM (inactive)
- GI50 (Hs-578T): > 100 µM (inactive)
- GI50 (KM12): > 100 µM (inactive)
- GI50 (ACHN): > 100 µM (inactive)
- GI50 (OVCAR-8): > 100 µM (inactive)
- GI50 (CAKI-1): > 100 µM (inactive)
- GI50 (DU-145): > 100 µM (inactive)

SMILES: N#Cc1ccc(/C=C2\Cc3ccccc3C2=O)cc1
- GI50 (SK-OV-3): > 100 µM (inactive)
- GI50 (OVCAR-4): > 100 µM (inactive)
- GI50 (MDA-MB-435): > 100 µM (inactive)
- GI50 (T47D): 36.3 µM (inactive)
- GI50 (SNB-19): > 100 µM (inactive)
- GI50 (RXF 393): > 100 µM (inactive)
- GI50 (SK-MEL-28): > 100 µM (inactive)
- GI50 (SF-539): > 100 µM (inactive)
- GI50 (RPMI-8226): > 100 µM (inactive)
- GI50 (SR): > 100 µM (inactive)
- GI50 (786-0): > 100 µM (inactive)
- GI50 (Hs-578T): 51.2 µM (inactive)
- GI50 (KM12): > 100 µM (inactive)
- GI50 (ACHN): > 100 µM (inactive)
- GI50 (OVCAR-8): > 100 µM (inactive)
- GI50 (CAKI-1): 26.2 µM (inactive)
- GI50 (DU-145): > 100 µM (inactive)

SMILES: C/C=C(/C)C(=O)O[C@H](C[C@@H](C)[C@H]1CC(c2ccoc2)OC1=O)[C@@]1(C)C(=O)CCC2O[C@]21C (stereo partly drawn)
- GI50 (SK-OV-3): > 100 µM (inactive)
- GI50 (OVCAR-4): > 100 µM (inactive)
- GI50 (MDA-MB-435): > 100 µM (inactive)
- GI50 (IGROV-1): > 100 µM (inactive)
- GI50 (T47D): > 100 µM (inactive)
- GI50 (SNB-19): > 100 µM (inactive)
- GI50 (RXF 393): > 100 µM (inactive)
- GI50 (SK-MEL-28): > 100 µM (inactive)
- GI50 (SF-539): > 100 µM (inactive)
- GI50 (OVCAR-5): > 100 µM (inactive)
- GI50 (RPMI-8226): > 100 µM (inactive)
- GI50 (SR): > 100 µM (inactive)
- GI50 (786-0): > 100 µM (inactive)
- GI50 (Hs-578T): > 100 µM (inactive)
- GI50 (KM12): > 100 µM (inactive)
- GI50 (ACHN): > 100 µM (inactive)
- GI50 (OVCAR-8): > 100 µM (inactive)
- GI50 (CAKI-1): > 100 µM (inactive)
- GI50 (DU-145): > 100 µM (inactive)

SMILES: O=C1C(NCCN2CCOCC2)=C(Cl)C(=O)c2ncccc21
- GI50 (SK-OV-3): 1.43 µM (inactive)
- GI50 (MDA-MB-435): 0.182 µM (active)
- GI50 (IGROV-1): 1.05 µM (active)
- GI50 (T47D): 1.39 µM (inactive)
- GI50 (SNB-19): 1.42 µM (inactive)
- GI50 (RXF 393): 0.327 µM (active)
- GI50 (SK-MEL-28): 1.61 µM (inactive)
- GI50 (SF-539): 1.18 µM (inactive)
- GI50 (OVCAR-5): 1.7 µM (inactive)
- GI50 (HOP-92): 2.08 µM (inactive)
- GI50 (RPMI-8226): 0.1 µM (active)
- GI50 (SR): 1.32 µM (inactive)
- GI50 (786-0): 0.431 µM (active)
- GI50 (Hs-578T): 1.21 µM (inactive)
- GI50 (KM12): 1.34 µM (inactive)
- GI50 (ACHN): 1.1 µM (active)
- GI50 (OVCAR-8): 0.377 µM (active)
- GI50 (DU-145): 1.01 µM (active)

Source: ChEMBL document CHEMBL1201862, “PubChem BioAssay data set” (2004)
